Laboratory results from ChEMBL document CHEMBL4507327 (2021).

Key:
[1] = biological target: Alpha-1D adrenergic receptor (Homo sapiens) (UniProt P25100); assay: Inhibition of Adrenergic alpha1D at 10 µM in the Eurofins-Panlabs radioligand binding assay (Eurofins_assay_203400); conditions: Compound concentration 10.0 uM
[2] = biological target: GABA-A receptor; anion channel (Rattus norvegicus) (UniProt O09028+P15431+P18506+P18508+P19969+P20236+P23574+P23576+P28471+P28473+P30191+P62813+P63079+P63138+Q91ZM7+Q9ES14); conditions: Compound concentration 10.0 uM
[3] = biological target: Sigma non-opioid intracellular receptor 1 (Homo sapiens) (UniProt Q99720); conditions: Compound concentration 10.0 uM
Sequence of Sigma non-opioid intracellular receptor 1 (Homo sapiens) (Q99720 whole entry): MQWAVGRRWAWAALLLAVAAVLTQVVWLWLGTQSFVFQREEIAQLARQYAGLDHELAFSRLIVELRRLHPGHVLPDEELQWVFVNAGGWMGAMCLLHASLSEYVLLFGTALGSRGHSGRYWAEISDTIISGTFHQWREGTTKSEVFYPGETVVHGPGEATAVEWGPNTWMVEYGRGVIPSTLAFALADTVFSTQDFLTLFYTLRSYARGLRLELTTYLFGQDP

[4] = biological target: Sigma intracellular receptor 2 (Homo sapiens) (UniProt Q5BJF2); conditions: Compound concentration 10.0 uM
[5] = biological target: Platelet-activating factor receptor (Homo sapiens) (UniProt P25105); assay: Platelet Activating Factor (PAF) Eurofins-Panlabs radioligand binding assay; parameters: ligand concentration 1 nM; conditions: Compound concentration 10.0 uM
Sequence of Platelet-activating factor receptor (Homo sapiens) (P25105 whole entry): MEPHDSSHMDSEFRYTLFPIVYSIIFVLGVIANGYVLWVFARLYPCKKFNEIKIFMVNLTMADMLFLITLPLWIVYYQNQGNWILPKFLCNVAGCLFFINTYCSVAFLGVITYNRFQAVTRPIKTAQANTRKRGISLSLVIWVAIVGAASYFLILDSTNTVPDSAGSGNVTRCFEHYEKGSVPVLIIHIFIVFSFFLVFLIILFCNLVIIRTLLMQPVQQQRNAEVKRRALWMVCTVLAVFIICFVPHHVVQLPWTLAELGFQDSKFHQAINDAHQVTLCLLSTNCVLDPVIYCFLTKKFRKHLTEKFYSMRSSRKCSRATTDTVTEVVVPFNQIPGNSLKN

[6] = biological target: 5-hydroxytryptamine receptor 5A (Homo sapiens) (UniProt P47898); conditions: Compound concentration 10.0 uM
Sequence of 5-hydroxytryptamine receptor 5A (Homo sapiens) (P47898 whole entry): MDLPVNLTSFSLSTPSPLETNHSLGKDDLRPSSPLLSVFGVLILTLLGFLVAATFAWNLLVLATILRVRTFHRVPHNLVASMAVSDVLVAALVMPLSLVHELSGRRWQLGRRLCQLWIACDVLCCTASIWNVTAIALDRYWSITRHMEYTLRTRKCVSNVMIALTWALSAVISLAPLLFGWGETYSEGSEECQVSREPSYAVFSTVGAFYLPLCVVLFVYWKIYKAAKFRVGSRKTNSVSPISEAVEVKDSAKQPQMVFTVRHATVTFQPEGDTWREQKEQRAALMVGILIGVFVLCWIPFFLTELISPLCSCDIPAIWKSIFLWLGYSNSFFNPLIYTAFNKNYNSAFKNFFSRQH

[7] = biological target: 5-hydroxytryptamine receptor 1E (Homo sapiens) (UniProt P28566); conditions: Compound concentration 10.0 uM
Sequence of 5-hydroxytryptamine receptor 1E (Homo sapiens) (P28566 whole entry): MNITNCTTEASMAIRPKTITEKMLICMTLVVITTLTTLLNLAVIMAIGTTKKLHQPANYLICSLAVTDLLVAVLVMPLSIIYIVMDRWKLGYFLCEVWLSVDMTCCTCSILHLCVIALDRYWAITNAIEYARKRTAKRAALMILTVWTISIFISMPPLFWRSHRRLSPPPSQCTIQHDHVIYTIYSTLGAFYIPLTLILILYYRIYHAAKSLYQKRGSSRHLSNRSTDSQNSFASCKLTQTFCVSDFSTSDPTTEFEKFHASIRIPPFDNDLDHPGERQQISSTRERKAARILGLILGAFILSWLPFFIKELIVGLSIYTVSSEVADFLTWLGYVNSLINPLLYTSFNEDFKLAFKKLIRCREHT

[8] = GPCRScan assay: inhibition of GABA/PBR; parameters: species or system Rattus norvegicus; radioligand conc. used [nm] 0.3 – 2.0, parental cells brain tissue
[9] = biological target: Muscarinic acetylcholine receptor M5 (Homo sapiens) (UniProt P08912); conditions: Compound concentration 10.0 uM
Sequence of Muscarinic acetylcholine receptor M5 (Homo sapiens) (P08912 whole entry): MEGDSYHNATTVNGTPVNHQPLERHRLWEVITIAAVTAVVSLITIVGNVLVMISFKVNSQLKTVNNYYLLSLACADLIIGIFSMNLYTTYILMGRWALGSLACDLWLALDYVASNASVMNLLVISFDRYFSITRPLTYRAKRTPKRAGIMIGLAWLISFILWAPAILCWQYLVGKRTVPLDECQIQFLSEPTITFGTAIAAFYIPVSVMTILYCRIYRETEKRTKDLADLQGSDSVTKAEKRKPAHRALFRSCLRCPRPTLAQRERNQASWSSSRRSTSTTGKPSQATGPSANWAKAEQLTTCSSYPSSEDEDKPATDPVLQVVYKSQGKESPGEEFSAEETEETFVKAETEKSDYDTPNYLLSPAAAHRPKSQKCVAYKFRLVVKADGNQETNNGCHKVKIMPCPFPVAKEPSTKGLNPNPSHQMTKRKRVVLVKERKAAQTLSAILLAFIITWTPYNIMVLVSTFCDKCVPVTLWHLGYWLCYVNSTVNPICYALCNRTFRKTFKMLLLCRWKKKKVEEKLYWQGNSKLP

[10] = biological target: Alpha-2B adrenergic receptor (Homo sapiens) (UniProt P18089); conditions: Compound concentration 10.0 uM
Sequence of Alpha-2B adrenergic receptor (Homo sapiens) (P18089 whole entry): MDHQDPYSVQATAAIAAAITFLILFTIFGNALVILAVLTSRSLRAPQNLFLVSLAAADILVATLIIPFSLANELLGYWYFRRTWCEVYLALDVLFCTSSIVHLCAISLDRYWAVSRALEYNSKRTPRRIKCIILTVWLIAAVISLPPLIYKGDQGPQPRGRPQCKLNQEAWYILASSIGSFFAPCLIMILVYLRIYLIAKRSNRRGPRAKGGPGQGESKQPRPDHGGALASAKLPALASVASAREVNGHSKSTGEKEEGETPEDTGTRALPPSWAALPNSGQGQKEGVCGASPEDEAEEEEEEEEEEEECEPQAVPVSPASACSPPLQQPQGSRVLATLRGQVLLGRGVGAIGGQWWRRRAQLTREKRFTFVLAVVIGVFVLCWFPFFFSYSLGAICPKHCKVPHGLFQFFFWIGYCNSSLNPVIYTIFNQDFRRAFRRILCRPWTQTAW

[11] = biological target: D(2) dopamine receptor (Homo sapiens) (UniProt P14416); conditions: Compound concentration 10.0 uM
Sequence of D(2) dopamine receptor (Homo sapiens) (P14416 whole entry): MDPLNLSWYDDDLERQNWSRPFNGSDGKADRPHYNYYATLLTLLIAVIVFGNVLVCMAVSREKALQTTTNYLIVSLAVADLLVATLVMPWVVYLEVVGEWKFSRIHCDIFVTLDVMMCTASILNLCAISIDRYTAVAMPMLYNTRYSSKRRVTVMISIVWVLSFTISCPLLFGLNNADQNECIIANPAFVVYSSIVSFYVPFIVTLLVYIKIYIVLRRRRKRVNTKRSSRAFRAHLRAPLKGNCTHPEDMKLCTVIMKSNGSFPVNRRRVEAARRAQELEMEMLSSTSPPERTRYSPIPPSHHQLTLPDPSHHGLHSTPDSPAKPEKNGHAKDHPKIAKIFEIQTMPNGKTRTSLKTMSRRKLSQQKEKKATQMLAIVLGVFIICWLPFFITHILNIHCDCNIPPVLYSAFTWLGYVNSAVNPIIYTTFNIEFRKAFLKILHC

Rattus norvegicus = species: Rattus norvegicus; conditions: Compound concentration 10.0 uM
[12] = biological target: Histamine H2 receptor (Homo sapiens) (UniProt P25021); conditions: Compound concentration 10.0 uM
Sequence of Histamine H2 receptor (Homo sapiens) (P25021 whole entry): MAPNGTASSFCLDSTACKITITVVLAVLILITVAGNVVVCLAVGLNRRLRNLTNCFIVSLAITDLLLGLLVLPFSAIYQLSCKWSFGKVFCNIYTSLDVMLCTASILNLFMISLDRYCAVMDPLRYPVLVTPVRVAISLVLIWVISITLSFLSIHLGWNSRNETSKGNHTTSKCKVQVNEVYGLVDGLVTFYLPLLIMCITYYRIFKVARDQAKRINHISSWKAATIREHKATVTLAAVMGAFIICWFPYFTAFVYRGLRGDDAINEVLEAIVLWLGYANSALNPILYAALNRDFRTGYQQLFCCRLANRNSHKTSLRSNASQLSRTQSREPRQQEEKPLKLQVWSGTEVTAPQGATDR

[13] = biological target: Tyrosine-protein kinase Lyn (Homo sapiens, UniProt P07948); assay: Lyn(LYN1LGF1) Takeda global kinase panel
[14] = biological target: voltage-gated sodium channel, site 2 (Rattus norvegicus, UniProt F1LQQ7+O08562+O88420+O88457+P04774+P04775+P08104+P15389+P15390+Q62968); assay: Inhibition of Sodium Channel, Site 2 at 10 µM in the Eurofins-Panlabs radioligand binding assay (Eurofins_assay_279510); type: protein assay; parameters: ligand concentration 5 nM, non-specific ligand with concentration 100 µM Veratridine, incubation time 60 min, incubation temperature 37 °C; conditions: male, Wistar, whole brain (except cerebellum) membranes of rats, probe [3H] Batrachotoxinin, compound concentration 10 uM
[15] = biological target: Homeodomain-interacting protein kinase 3 (Homo sapiens, UniProt Q9H422); assay: HIPK3(HIP3LGF1) Takeda global kinase panel
[16] = biological target: Macrophage-stimulating protein receptor (Homo sapiens, UniProt Q04912); assay: Ron(MST1MGY1) Takeda global kinase panel
Sequence of Macrophage-stimulating protein receptor (Q04912 25-304 limits assumed): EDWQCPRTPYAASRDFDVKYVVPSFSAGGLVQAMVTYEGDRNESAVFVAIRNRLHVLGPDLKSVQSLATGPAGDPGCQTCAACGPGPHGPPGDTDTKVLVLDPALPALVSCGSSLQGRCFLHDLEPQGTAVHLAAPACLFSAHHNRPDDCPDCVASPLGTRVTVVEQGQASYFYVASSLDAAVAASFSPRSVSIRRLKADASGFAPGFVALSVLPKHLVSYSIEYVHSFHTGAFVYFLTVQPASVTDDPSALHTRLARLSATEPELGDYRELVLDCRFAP
Sequence of Macrophage-stimulating protein receptor (Q04912 310-1400 limits assumed): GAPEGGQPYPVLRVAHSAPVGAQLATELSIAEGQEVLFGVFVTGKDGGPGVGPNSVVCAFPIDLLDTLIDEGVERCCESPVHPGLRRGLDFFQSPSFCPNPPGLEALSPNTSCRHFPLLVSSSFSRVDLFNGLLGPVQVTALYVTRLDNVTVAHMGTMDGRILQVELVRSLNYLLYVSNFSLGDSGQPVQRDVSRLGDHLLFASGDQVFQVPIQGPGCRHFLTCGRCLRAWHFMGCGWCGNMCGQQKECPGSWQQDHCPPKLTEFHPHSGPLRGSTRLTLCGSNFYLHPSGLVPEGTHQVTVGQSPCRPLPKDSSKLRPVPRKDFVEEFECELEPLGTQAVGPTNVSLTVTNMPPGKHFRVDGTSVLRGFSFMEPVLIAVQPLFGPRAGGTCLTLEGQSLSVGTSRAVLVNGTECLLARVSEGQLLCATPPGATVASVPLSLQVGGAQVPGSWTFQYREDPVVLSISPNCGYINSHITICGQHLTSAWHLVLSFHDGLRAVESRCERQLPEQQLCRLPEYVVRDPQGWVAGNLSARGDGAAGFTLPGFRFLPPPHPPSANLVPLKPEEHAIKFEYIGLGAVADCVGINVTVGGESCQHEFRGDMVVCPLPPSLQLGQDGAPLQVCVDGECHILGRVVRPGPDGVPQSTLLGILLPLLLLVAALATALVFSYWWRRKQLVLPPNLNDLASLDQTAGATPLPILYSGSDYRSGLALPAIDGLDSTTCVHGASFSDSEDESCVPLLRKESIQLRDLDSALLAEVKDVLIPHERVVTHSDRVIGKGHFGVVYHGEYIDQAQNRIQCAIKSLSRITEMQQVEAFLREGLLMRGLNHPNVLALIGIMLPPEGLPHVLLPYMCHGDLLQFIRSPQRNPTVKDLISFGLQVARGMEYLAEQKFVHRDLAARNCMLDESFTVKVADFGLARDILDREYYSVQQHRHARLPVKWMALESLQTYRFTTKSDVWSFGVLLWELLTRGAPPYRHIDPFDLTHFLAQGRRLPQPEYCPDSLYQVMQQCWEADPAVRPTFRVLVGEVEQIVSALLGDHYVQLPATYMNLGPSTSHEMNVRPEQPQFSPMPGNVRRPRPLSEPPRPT

[17] = biological target: Dual specificity mitogen-activated protein kinase kinase 7 (Homo sapiens, UniProt O14733); assay: MAP2K7(M2K7CGRI) Takeda global kinase panel
Sequence of Dual specificity mitogen-activated protein kinase kinase 7 (O14733 whole entry): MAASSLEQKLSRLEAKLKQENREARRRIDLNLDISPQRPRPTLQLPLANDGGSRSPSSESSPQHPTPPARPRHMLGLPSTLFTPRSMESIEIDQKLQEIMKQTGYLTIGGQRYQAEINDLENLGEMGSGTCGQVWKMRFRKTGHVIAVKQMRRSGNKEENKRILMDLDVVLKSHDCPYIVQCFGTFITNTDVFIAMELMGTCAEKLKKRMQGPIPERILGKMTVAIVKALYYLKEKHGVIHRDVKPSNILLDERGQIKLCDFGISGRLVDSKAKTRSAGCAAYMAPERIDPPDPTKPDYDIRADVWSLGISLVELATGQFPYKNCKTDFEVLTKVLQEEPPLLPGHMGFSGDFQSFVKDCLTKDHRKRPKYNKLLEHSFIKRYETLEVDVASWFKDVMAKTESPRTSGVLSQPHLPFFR

[18] = biological target: Tyrosine-protein kinase receptor TYRO3 (Homo sapiens, UniProt Q06418); assay: Tyro3 [Sky(TYR3LGY1)] Takeda global kinase panel
[19] = biological target: Dual specificity mitogen-activated protein kinase kinase 2 (Homo sapiens, UniProt P36507); assay: MEK2 [MAP2K2(M2K2LGF1)] Takeda global kinase panel

Q: For `CN1C(=O)[C@@H](N2CCc3cn(Cc4ccccc4)nc3C2=O)COc2ccccc21` [TP-030-1], which inhibition [1] is on record?
A: Its inhibition is -2%.

Q: And the inhibition [2]?
A: Its inhibition is -3.98%.

Q: And the inhibition [3]?
A: Its inhibition is -1.9%.

Q: What about the inhibition [4] of the same compound?
A: The inhibition was 27%.

Q: What about the inhibition [5] of the same compound?
A: Its inhibition is 2%.

Q: And the inhibition [6]?
A: Its inhibition is 21.1%.

Q: And the inhibition [7]?
A: The inhibition was -1.55%.

Q: And the Ki [8]?
A: The Ki was 0.375 µM.

Q: What about the pKi [8] of the same compound?
A: The pKi was 6.425.

Q: And the inhibition [9]?
A: The inhibition was 6.63%.

Q: What about the inhibition [10] of the same compound?
A: Its inhibition is 43.3%.

Q: What about the inhibition [11] of the same compound?
A: The inhibition was -5.46%.

Q: And the inhibition (Rattus norvegicus)?
A: The inhibition was 68.7%.

Q: What about the inhibition [12] of the same compound?
A: The inhibition was 11.9%.

Q: Which results are given for `CN1C(=O)[C@@H](N2CCc3cn(CC4CCS(=O)(=O)CC4)nc3C2=O)COc2ccccc21` [TP-030n]?
A: IC50 [13]: 1 µM; inhibition at 60 min, 10 µM [14]: 9% (not active); IC50 [15]: 1 µM; IC50 [16]: 1 µM; IC50 [17]: 1 µM; IC50 [18]: 1 µM; IC50 [19]: 1 µM
